Assay results reported in patent US5621133A (priority 1995, dated 1997).
pEC50, pKi: −log10 of the molar value. Where a name gives a salt, the structure may show the parent alone.

Key:
dopamine D-1 receptor [1] = molecular target: dopamine D-1 receptor (Rattus norvegicus, UniProt P18901); test: biochemical; settings: D-1 Ki, rat caudate, [125I]SCH-23982
From the text: The compounds compete with the radiolabeled ligand for occupancy of the receptors and the molar potency of each compound was quantified.
The Ki values are inversely proportional to the affinity of the compound for the receptor.

dopamine D-1 receptor [2] = settings: for Intrinsic Activity (adenylate cyclase assay): dopamine = 100, goldfish retina or rat striatum; for pEC50: read-out: EC50 (agonist activity in adenylate cyclase assay), tissue from goldfish retina or rat striatum
Procedure: In order to determine agonist activity, cell-free tissue homogenates are incubated in an ionic buffer solution containing ATP and the compound being evaluated. The tissue was obtained from either goldfish retina or rat striatum.

dopamine D-2 receptor = dopamine D-2 receptor (Rattus norvegicus, UniProt P61169); test: biochemical; type: binding; settings: rat caudate, [125I]-p-aminophenylethyl spiroperidol; read-out: D-2 Ki
dopamine D-2 receptor, sequence (P61169 whole entry): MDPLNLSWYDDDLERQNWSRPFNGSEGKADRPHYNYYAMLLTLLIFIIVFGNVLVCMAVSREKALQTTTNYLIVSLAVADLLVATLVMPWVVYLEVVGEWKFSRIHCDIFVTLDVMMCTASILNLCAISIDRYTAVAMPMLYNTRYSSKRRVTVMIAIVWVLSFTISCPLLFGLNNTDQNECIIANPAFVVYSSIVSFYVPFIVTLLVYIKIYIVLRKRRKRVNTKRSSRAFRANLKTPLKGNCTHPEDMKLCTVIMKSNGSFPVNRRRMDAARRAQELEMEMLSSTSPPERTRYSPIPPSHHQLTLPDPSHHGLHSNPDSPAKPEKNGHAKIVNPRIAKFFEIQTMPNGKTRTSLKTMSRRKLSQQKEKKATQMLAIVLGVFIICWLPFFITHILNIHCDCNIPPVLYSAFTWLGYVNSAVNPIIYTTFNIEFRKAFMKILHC
Procedure: Homogenized rat caudate was the source of the D-2 receptors. […] The molar affinity of the compound for the receptor binding site was calculated by the same method used for the D-1 receptor assay, assuming a competitive interaction between the compound and the radiolabeled ligand.

dopamine D-1 receptor (Rattus norvegicus, UniProt P18901), sequence (P18901 whole entry): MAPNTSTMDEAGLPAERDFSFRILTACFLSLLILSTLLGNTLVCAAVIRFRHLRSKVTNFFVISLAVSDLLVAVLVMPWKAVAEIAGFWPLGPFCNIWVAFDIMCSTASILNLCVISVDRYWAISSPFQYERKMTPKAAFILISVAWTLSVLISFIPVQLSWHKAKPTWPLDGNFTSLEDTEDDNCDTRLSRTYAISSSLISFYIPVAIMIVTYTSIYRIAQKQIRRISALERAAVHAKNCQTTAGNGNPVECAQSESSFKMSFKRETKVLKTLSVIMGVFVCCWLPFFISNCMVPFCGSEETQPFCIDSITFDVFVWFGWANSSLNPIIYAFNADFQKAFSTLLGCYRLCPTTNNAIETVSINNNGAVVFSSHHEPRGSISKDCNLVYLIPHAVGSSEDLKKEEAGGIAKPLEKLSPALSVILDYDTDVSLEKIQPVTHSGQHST

| SMILES | pKi (dopamine D-1 receptor [1]) | Intrinsic Activity (adenylate cyclase assay) (dopamine D-1 receptor [2]) | pEC50 (dopamine D-1 receptor [2]) | pKi (dopamine D-2 receptor) |
| --- | --- | --- | --- | --- |
| NC[C@@H]1O[C@H](c2ccc(Br)cc2)Cc2c1ccc(O)c2O (relative stereo) [Example 69] | 7.06 | 108 | 7.14 | 5.57 |
| CNCC1OC2(CCCCCC2)Cc2c1ccc(O)c2O (stereo not drawn) [Example 141] | 6.92 | 97 | 7.10 | 5.59 |
| CC(C)C(=O)Oc1ccc2c(c1OC(=O)C(C)C)CC(c1ccccc1)C=C2CN (stereo not drawn) [Example 18] | 5.89 | 46 | 5.82 | < 5.00 |
| COc1ccc(OC[C@H]2Cc3c(ccc(O)c3O)[C@@H](CN)O2)cc1 (relative stereo) [Example 53] | 6.60 | 67 | 7.64 | 6.19 |
| CC(C)(C)C(=O)NC[C@H]1Cc2c(ccc(O)c2O)[C@@H](CN)O1 (relative stereo) [Example 166] | 5.32 | 97 | 6.74 | 5.62 |
| NC[C@H]1O[C@@H](CNC(=O)c2ccc(Br)cc2)Cc2c1ccc(O)c2O (relative stereo) [Example 167] | 6.51 | 125 | 6.92 | 8.68 |
| NCC1CC2(CCCC2)Cc2c1ccc(O)c2O (stereo not drawn) [Example 196] | 5.22 | 80 | 5.96 | < 5.00 |
| NC[C@@H]1O[C@H](c2ccccc2)Cc2c1cc(Br)c(O)c2O (relative stereo) [Example 62] | 6.68 | 111 | 6.77 | 5.43 |
| COc1cccc([C@@H]2Cc3c(ccc(O)c3O)[C@H](CN)O2)c1 (relative stereo) [Example 82] | 7.96 | 107 | 8.15 | 6.09 |
| NC[C@H]1O[C@@H](CN2CCCC2)Cc2c1ccc(O)c2O (relative stereo) [Example 156, [1,3-cis]1-Aminomethyl-3,4-dihydro-5,6-dihydroxy-3-pyrrolidinylmethyl-1H-2-benzopyran Dihydrochloride] | 5.20 | 127 | 5.02 | 4.80 |
| C=CCNC[C@@H]1O[C@H](C(C)(C)C)Cc2c1ccc(O)c2O [Example 129] | 5.68 | 97 | 6.00 | 5.51 |
| NCC1=CC2(CCCCCCCCC2)Cc2c1ccc(O)c2O [Example 234] | 5.41 | 53 | 5.57 | < 5.00 |
| COC(=O)Oc1ccc2c(c1OC(=O)OC)CC(c1ccccc1)C=C2CN (stereo not drawn) [Example 23] | 6.30 | 65 | 5.96 | < 5.00 |
| NC[C@H]1Cc2c(ccc(O)c2O)[C@@H](CN)O1 (relative stereo) [Example 154, [1,3-cis]1,3-Bis(aminomethyl)-3,4-dihydro-5,6-dihydroxy-1H-2-benzopyran Dihydrochloride] | 5.85 | 95 | 7.00 | 4.77 |
| CCNC[C@@H]1O[C@H](C(C)(C)C)Cc2c1ccc(O)c2O [Example 128] | 6.24 | 108 | 7.06 | 4.64 |
| NC[C@H]1O[C@@H](CNC(=O)c2ccccc2)Cc2c1ccc(O)c2O (relative stereo) [Example 164] | 5.44 | 96 | 6.70 | 6.60 |
| CNCC1=CC(c2ccccc2)Cc2c1ccc(O)c2O (stereo not drawn) [Example 149, 5,6-Dihydroxy-1-(N-methyl)aminomethyl-3-phenyl-3,4,-dihydronaphthalene] | 6.34 | 78 | 7.44 | 4.72 |
| Cl.NCc1cc(-c2ccccc2)cc2c(O)c(O)ccc12 [Example 46, 1-Aminomethyl-5,6-dihydroxy-3-phenylnaphthalene Hydrochloride] | 5.77 | 69 | 6.66 | < 5.00 |
| CCC(C)C(C)[C@@H]1Cc2c(ccc(O)c2O)[C@H](CN)O1 (stereo partly drawn) [Example 72] | 7.82 | 80 | 6.77 | 5.09 |
| CC(=O)NC[C@H]1Cc2c(ccc(O)c2O)[C@@H](CN)O1 (relative stereo) [Example 161] | 5.89 | 58 | 6.35 | 6.77 |
| C#CCNC[C@H]1O[C@@H](C2CCCCC2)Cc2c1ccc(O)c2O (relative stereo) [Example 118] | 5.60 | 87 | 7.25 | 5.17 |
| CCOC(=O)Oc1ccc2c(c1OC(=O)OCC)CC(c1ccccc1)C=C2CN (stereo not drawn) [Example 29] | 5.22 | 54 | 6.00 | < 5.00 |

Further compounds by rising pKi (dopamine D-1 receptor [1]), results first:

| pKi (dopamine D-1 receptor [1]) | Intrinsic Activity (adenylate cyclase assay) (dopamine D-1 receptor [2]) | pEC50 (dopamine D-1 receptor [2]) | pKi (dopamine D-2 receptor) | SMILES |
| --- | --- | --- | --- | --- |
| 4.85 | 91 | 6.49 | 4.80 | CCCCCCCCCC[C@@H]1Cc2c(ccc(O)c2O)[C@H](CN)O1 (relative stereo) [Example 65] |
| 5.48 | 65 | 5.82 | < 5.00 | NCC1=CC2(CCCCC2)Cc2c1ccc(O)c2O [Example 189] |
| 5.57 | 63 | 6.00 | < 5.00 | C=CCNC[C@H]1O[C@@H](CCCC)Cc2c1ccc(O)c2O (relative stereo) [Example 125] |
| 5.59 | 95 | 6.82 | 5.09 | NC[C@H]1O[C@@H](CO)Cc2c1ccc(O)c2O (relative stereo) [Example 155, [1,3-cis]1-Aminomethyl-3,4-dihydro-5,6-dihydroxy-3-hydroxymethyl-1H-2-benzopyran Hydrochloride] |
| 5.92 | 60 | 7.10 | 6.00 | C=CCNC[C@H]1O[C@@H](C23CC4CC(CC(C4)C2)C3)Cc2c1ccc(O)c2O (relative stereo) [Example 117] |
| 5.96 | 116 | 6.66 | < 5.00 | CC(=O)NCC[C@H]1Cc2c(ccc(O)c2O)[C@@H](CN)O1 (relative stereo) [Example 172] |
| 6.00 | 0 | < 5.00 | 5.37 | CC(C)(C)C1Cc2c(ccc(O)c2O)C2=C1CCNC2 (stereo not drawn) [Example 203] |
| 6.06 | 56 | 6.74 | < 5.30 | NCC1CC2(CCCCCCC2)Cc2c1ccc(O)c2O (stereo not drawn) [Example 197] |
| 6.14 | 151 | 8.15 | 6.04 | CCCC[C@@H]1Cc2c(ccc(O)c2O)[C@H](CN)O1 (relative stereo) [Example 79] |
| 6.20 | 43 | 6.32 | 6.15 | CN1CCC2=C(C1)c1ccc(O)c(O)c1CC21CCCCC1 [Example 212] |
| 6.28 | 93 | 7.43 | 5.66 | NC[C@@H]1O[C@H](Cc2ccccc2)Cc2c1ccc(O)c2O (relative stereo) [Example 60] |
| 6.32 | 60 | 6.54 | 5.34 | NC[C@@H]1O[C@H](COCc2ccccc2)Cc2c1ccc(O)c2O (relative stereo) [Example 75] |
| 6.38 | 60 | 7.22 | 6.05 | Oc1ccc2c(c1O)C[C@H](C1CCCCC1)O[C@@H]2CNC1CC1 (relative stereo) [Example 114] |
| 6.59 | 63 | 7.72 | 5.92 | NC[C@@H]1O[C@H](COc2ccc(Br)cc2)Cc2c1ccc(O)c2O (relative stereo) [Example 58] |
| 7.00 | 105 | 6.08 | 5.70 | CC(C)=CCCC(C)[C@@H]1Cc2c(ccc(O)c2O)[C@H](CN)O1 (stereo partly drawn) [Example 74] |
| 7.00 | 90 | 7.85 | 5.26 | CCCCCC[C@@H]1Cc2c(ccc(O)c2O)[C@H](CN)O1 (relative stereo) [Example 68] |
| 7.07 | 106 | 6.06 | 6.19 | C=CCC[C@H]1Cc2c(ccc(O)c2O)[C@@H](CNC)O1 (relative stereo) [Example 132] |
| 7.08 | 110 | 7.15 | < 5.00 | NCC1OC2(CCCCCCC2)Cc2c1ccc(O)c2O (stereo not drawn) [Example 94] |
| 7.19 | 138 | 6.80 | 4.47 | C=CCC[C@@H]1Cc2c(ccc(O)c2O)[C@H](CN)O1 (relative stereo) [Example 73] |
| 7.59 | 59 | 6.92 | < 5.00 | CN(C)C[C@@H]1O[C@H](C2(C)CCCCC2)Cc2c1ccc(O)c2O (relative stereo) [Example 230] |
